# Source: ChEMBL document CHEMBL2010722, “Structure-activity relationship study of beta-carboline derivatives as haspin kinase inhibitors” (Bioorg Med Chem Lett, 2012)
# Tests used:
# [1] = molecular target: Tyrosine-protein kinase Tec (Homo sapiens) (UniProt P42680); experiment: Inhibition of TEC at 10 uM
# [2] = molecular target: Calcium/calmodulin-dependent protein kinase type II subunit delta (Homo sapiens) (UniProt Q13557); experiment: Inhibition of CaMK2d at 10 uM
# [3] = molecular target: Casein kinase I isoform delta (Homo sapiens) (UniProt P48730); experiment: Inhibition of CK1d at 10 uM
# [4] = molecular target: [Pyruvate dehydrogenase (acetyl-transferring)] kinase isozyme 4, mitochondrial (Homo sapiens) (UniProt Q16654); experiment: Inhibition of PDHK4 at 10 uM
# [5] = molecular target: Eukaryotic translation initiation factor 2-alpha kinase 3 (Homo sapiens) (UniProt Q9NZJ5); experiment: Inhibition of PEK at 10 uM
# [6] = molecular target: MAP/microtubule affinity-regulating kinase 4 (Homo sapiens) (UniProt Q96L34); experiment: Inhibition of MARK4 at 10 uM
# [7] = test system: Serine/threonine-protein kinase B-raf (Homo sapiens), P15056 [V600E]; experiment: Inhibition of BRAF V600E mutant at 10 uM
# [8] = molecular target: Serine/threonine-protein kinase 26 (Homo sapiens) (UniProt Q9P289); experiment: Inhibition of MST4 at 10 uM
# [9] = molecular target: Serine/threonine-protein kinase TBK1 (Homo sapiens) (UniProt Q9UHD2); experiment: Inhibition of TBK1 at 10 uM
# [10] = molecular target: Serine/threonine-protein kinase MRCK alpha (Homo sapiens) (UniProt Q5VT25); experiment: Inhibition of MRCKa at 10 uM
# [11] = molecular target: Serine/threonine-protein kinase 38 (Homo sapiens) (UniProt Q15208); experiment: Inhibition of NDR1 at 10 uM
# [12] = test system: Platelet-derived growth factor receptor alpha (Homo sapiens), P16234 [T674I]; experiment: Inhibition of PDGFRa T674I mutant at 10 uM
# [13] = molecular target: Serine/threonine-protein kinase pim-2 (Homo sapiens) (UniProt Q9P1W9); experiment: Inhibition of PIM2 at 10 uM
# [14] = molecular target: Ribosomal protein S6 kinase alpha-4 (Homo sapiens) (UniProt O75676); experiment: Inhibition of MSK2 N-terminal at 10 uM
# [15] = test system: Liver; experiment: Half life in mouse liver microsome at 3 uM; format: ADME; details: microsomes
# [16] = molecular target: Homeodomain-interacting protein kinase 4 (Homo sapiens) (UniProt Q8NE63); experiment: Inhibition of HIPK4 at 10 uM
# [17] = molecular target: Inhibitor of nuclear factor kappa-B kinase subunit alpha (Homo sapiens) (UniProt O15111); experiment: Inhibition of IKKa at 10 uM
# [18] = molecular target: Serine/threonine-protein kinase D1 (Homo sapiens) (UniProt Q15139); experiment: Inhibition of PKD1 at 10 uM
# [19] = molecular target: Serine/threonine-protein kinase Nek2 (Homo sapiens) (UniProt P51955); experiment: Inhibition of NEK2 at 10 uM
# [20] = molecular target: Casein kinase II alpha'/ beta (Homo sapiens) (UniProt P67870+P19784); experiment: Inhibition of CK2a2/b at 10 uM; format: protein-complex assay
# [21] = molecular target: Eukaryotic elongation factor 2 kinase (Homo sapiens) (UniProt O00418); experiment: Inhibition of EEF2K at 10 uM
# [22] = molecular target: Activated CDC42 kinase 1 (Homo sapiens) (UniProt Q07912); experiment: Inhibition of TNK2 at 10 uM
# [23] = molecular target: Testis-specific serine/threonine-protein kinase 1 (Homo sapiens) (UniProt Q9BXA7); experiment: Inhibition of TSSK1 at 10 uM
# [24] = molecular target: Mitogen-activated protein kinase kinase kinase 12 (Homo sapiens) (UniProt Q12852); experiment: Inhibition of DLK at 10 uM
# [25] = molecular target: Ephrin type-A receptor 1 (Homo sapiens) (UniProt P21709); experiment: Inhibition of EPHA1 at 10 uM
# [26] = molecular target: Calcium/calmodulin-dependent protein kinase type II subunit beta (Homo sapiens) (UniProt Q13554); experiment: Inhibition of CaMK2b at 10 uM
# [27] = molecular target: Focal adhesion kinase 1 (Homo sapiens) (UniProt Q05397); experiment: Inhibition of FAK at 10 uM
# [28] = molecular target: Mitogen-activated protein kinase kinase kinase 2 (Homo sapiens) (UniProt Q9Y2U5); experiment: Inhibition of MAP3K2 at 10 uM
# [29] = molecular target: Insulin receptor (Homo sapiens) (UniProt P06213); experiment: Inhibition of INSR at 10 uM
# [30] = molecular target: EML4-ALK (Homo sapiens) (UniProt Q9UM73+Q9HC35); experiment: Inhibition of EML4-ALK at 10 uM; format: protein assay
# [31] = test system: ALK tyrosine kinase receptor (Homo sapiens), Q9UM73 [R1275Q]; experiment: Inhibition of ALK R1275Q mutant at 10 uM
# [32] = molecular target: NT-3 growth factor receptor (Homo sapiens) (UniProt Q16288); experiment: Inhibition of TRKC at 10 uM
# [33] = molecular target: Homeodomain-interacting protein kinase 1 (Homo sapiens) (UniProt Q86Z02); experiment: Inhibition of HIPK1 at 10 uM
# [34] = molecular target: NUAK family SNF1-like kinase 1 (Homo sapiens) (UniProt O60285); experiment: Inhibition of NuaK1 at 10 uM
# [35] = molecular target: TAK1/TAB1 (Homo sapiens) (UniProt Q15750+O43318); experiment: Inhibition of TAK1-TAB1 at 10 uM; format: protein-complex assay
# [36] = molecular target: Mitogen-activated protein kinase 10 (Homo sapiens) (UniProt P53779); experiment: Inhibition of JNK3 at 10 uM
# [37] = molecular target: Dual specificity mitogen-activated protein kinase kinase 4 (Homo sapiens) (UniProt P45985); experiment: Inhibition of MAP2K4 at 10 uM
# [38] = molecular target: Aurora kinase A/Targeting protein for Xklp2 (Homo sapiens) (UniProt O14965+Q9ULW0); experiment: Inhibition of AurA-TPX2 at 10 uM; format: protein-complex assay
# [39] = molecular target: Serine/threonine-protein kinase WNK1 (Homo sapiens) (UniProt Q9H4A3); experiment: Inhibition of WNK1 at 10 uM
# [40] = molecular target: Protein kinase C eta type (Homo sapiens) (UniProt P24723); experiment: Inhibition of PKCh at 10 uM
# [41] = molecular target: Sphingosine kinase 2 (Homo sapiens) (UniProt Q9NRA0); experiment: Inhibition of SPHK2 at 10 uM
# [42] = molecular target: cAMP-dependent protein kinase catalytic subunit beta (Homo sapiens) (UniProt P22694); experiment: Inhibition of PKACb (PRKACB) at 10 uM
# [43] = molecular target: Serine/threonine-protein kinase PLK2 (Homo sapiens) (UniProt Q9NYY3); experiment: Inhibition of PLK2 at 10 uM
# [44] = molecular target: Protein kinase C gamma type (Homo sapiens) (UniProt P05129); experiment: Inhibition of PKCgamma at 10 uM
# [45] = molecular target: AMP-activated protein kinase (AMPK) alpha-1/beta-1/gamma-1 (Homo sapiens) (UniProt P54619+Q9Y478+Q13131); experiment: Inhibition of AMPKalpha1/beta1/gamma1 at 10 uM; format: protein-complex assay
# [46] = molecular target: MAP/microtubule affinity-regulating kinase 3 (Homo sapiens) (UniProt P27448); experiment: Inhibition of MARK3 at 10 uM
# Mitogen-activated protein kinase kinase kinase 2 (Homo sapiens), sequence (Q9Y2U5 whole entry): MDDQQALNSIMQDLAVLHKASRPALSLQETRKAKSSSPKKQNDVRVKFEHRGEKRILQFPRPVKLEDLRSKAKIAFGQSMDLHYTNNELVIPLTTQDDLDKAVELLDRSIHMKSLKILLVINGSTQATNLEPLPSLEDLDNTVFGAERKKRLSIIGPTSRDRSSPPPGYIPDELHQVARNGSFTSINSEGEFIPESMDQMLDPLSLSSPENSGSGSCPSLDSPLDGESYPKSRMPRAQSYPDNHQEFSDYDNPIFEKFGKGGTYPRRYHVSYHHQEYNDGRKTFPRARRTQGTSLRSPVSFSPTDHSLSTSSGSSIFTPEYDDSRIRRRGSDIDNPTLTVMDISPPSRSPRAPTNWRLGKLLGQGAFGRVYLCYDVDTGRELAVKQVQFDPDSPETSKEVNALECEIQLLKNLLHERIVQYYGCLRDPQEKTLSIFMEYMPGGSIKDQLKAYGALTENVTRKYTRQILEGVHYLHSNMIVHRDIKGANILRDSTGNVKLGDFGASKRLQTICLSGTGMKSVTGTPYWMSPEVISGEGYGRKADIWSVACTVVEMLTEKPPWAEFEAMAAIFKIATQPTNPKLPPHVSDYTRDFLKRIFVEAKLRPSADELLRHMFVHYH
# Serine/threonine-protein kinase 38 (Homo sapiens), sequence (Q15208 2-465 limits assumed): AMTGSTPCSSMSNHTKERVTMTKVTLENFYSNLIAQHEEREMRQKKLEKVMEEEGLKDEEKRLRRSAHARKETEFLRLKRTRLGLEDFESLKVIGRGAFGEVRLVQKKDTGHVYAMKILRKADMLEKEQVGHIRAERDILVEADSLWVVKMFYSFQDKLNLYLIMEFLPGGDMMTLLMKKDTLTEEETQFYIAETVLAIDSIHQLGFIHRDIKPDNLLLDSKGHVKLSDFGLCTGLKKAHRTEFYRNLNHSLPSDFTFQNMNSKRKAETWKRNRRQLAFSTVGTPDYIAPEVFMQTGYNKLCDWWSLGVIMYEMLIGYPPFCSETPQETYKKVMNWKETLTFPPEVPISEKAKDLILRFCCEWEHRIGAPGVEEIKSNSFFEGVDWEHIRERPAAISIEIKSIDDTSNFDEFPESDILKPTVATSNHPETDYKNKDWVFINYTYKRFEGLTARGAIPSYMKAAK
# Activated CDC42 kinase 1 (Homo sapiens), sequence (Q07912 whole entry, looked up): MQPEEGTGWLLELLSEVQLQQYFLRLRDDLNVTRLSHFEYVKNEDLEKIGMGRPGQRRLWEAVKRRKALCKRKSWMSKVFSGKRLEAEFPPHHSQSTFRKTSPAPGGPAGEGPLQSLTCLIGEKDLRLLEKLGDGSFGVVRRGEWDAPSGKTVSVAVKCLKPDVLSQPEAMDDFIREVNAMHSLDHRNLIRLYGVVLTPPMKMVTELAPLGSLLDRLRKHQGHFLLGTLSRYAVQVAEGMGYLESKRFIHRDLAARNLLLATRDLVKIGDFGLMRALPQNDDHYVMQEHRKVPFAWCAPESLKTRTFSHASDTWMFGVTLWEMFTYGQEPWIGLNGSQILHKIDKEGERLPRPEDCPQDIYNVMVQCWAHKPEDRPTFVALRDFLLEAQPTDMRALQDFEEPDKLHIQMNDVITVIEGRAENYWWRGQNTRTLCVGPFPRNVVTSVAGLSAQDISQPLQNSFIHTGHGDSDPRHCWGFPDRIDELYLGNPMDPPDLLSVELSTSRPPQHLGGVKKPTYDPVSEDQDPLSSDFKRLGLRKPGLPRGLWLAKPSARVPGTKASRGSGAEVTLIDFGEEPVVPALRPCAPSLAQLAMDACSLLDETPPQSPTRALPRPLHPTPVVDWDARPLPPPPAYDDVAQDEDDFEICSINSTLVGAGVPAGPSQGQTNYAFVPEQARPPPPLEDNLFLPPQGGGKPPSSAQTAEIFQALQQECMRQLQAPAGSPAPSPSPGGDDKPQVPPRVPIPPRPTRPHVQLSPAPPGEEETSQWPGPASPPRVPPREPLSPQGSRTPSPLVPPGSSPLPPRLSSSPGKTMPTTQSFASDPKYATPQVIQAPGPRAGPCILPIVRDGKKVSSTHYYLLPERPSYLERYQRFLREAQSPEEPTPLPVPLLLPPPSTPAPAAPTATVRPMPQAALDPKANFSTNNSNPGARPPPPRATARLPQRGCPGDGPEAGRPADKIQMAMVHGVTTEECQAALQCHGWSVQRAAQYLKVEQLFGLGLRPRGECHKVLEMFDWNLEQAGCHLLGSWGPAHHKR
# Protein kinase C eta type (Homo sapiens), sequence (P24723 whole entry): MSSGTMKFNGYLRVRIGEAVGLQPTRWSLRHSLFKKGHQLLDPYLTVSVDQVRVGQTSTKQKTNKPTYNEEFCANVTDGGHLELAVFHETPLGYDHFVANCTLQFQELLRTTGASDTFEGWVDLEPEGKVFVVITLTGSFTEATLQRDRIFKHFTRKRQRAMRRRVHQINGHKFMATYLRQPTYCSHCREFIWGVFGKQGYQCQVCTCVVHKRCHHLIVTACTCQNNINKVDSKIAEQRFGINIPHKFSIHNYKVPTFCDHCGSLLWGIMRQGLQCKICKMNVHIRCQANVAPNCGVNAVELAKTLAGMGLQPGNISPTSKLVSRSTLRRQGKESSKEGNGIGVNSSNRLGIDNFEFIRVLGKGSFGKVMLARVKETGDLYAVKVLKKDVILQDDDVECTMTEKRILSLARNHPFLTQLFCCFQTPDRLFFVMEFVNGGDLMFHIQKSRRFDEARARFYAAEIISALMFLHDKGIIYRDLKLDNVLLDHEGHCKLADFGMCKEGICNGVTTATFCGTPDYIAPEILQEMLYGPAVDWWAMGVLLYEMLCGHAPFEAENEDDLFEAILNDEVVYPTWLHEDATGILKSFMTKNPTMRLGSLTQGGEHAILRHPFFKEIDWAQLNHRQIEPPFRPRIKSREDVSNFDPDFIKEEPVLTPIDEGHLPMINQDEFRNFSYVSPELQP
# Mitogen-activated protein kinase kinase kinase 12 (Homo sapiens), sequence (Q12852 whole entry): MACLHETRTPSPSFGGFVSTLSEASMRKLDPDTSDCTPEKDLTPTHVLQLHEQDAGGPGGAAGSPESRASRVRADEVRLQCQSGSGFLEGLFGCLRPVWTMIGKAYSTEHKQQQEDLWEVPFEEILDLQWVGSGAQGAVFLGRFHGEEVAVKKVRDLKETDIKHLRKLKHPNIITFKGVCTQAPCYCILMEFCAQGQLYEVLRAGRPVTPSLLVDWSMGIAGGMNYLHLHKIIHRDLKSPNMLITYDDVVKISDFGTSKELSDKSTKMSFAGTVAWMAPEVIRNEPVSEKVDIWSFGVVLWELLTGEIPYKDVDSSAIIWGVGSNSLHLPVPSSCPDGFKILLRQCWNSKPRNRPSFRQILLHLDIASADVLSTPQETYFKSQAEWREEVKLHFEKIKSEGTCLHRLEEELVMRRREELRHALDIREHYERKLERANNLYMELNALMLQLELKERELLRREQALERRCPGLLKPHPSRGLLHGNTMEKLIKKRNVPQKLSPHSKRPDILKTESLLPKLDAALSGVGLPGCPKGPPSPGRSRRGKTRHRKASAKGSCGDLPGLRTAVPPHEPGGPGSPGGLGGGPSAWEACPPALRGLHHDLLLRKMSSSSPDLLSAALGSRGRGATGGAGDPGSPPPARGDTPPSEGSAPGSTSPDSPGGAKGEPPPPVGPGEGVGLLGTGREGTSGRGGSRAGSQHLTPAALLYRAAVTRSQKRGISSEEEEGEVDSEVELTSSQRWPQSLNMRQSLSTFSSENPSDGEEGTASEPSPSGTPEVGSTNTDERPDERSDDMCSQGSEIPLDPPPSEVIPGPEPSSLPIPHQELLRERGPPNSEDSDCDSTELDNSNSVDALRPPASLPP
# Platelet-derived growth factor receptor alpha (Homo sapiens), P16234 [T674I], sequence (P16234 whole entry T674I): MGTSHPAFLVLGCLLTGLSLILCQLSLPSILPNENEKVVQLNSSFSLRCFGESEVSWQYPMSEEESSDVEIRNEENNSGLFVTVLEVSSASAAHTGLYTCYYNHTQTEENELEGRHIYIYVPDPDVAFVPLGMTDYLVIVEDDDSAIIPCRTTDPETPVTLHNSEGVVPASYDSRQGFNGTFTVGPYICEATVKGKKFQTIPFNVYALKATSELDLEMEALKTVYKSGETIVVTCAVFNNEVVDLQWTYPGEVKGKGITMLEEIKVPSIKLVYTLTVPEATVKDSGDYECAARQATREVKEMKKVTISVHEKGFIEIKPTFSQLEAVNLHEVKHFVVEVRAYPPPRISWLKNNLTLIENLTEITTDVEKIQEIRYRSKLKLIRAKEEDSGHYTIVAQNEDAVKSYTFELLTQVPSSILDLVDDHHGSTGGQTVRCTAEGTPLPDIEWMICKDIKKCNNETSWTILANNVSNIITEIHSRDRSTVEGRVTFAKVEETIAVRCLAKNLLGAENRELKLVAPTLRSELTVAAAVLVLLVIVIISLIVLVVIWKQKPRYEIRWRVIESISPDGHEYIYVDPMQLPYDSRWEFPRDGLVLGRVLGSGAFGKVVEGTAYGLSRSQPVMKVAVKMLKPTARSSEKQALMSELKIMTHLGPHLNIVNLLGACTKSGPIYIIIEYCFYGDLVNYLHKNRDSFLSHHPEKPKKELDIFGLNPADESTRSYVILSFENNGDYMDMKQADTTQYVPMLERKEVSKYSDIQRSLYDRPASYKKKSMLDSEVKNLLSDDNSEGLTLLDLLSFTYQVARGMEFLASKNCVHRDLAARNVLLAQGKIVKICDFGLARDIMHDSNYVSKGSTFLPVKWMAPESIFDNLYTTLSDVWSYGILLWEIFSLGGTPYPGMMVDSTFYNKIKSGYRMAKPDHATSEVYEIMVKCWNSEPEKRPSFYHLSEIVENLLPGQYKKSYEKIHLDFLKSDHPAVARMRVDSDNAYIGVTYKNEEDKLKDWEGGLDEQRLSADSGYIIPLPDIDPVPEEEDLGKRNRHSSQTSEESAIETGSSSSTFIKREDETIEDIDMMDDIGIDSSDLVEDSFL
# Serine/threonine-protein kinase pim-2 (Homo sapiens), sequence (Q9P1W9 whole entry, looked up): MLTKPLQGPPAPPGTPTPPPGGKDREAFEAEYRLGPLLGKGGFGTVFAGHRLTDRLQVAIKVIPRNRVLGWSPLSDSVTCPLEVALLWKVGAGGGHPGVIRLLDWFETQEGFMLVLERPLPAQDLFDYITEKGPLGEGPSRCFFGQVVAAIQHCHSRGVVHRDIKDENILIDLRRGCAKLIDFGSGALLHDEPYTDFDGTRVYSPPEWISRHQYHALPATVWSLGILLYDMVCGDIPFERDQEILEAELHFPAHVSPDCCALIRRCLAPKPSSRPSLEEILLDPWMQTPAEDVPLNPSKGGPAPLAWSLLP
smiles,measurement,setting,value
COc1ccc2c3ccnc(C(F)(F)F)c3n(CCCCN)c2c1,inhibition,[1],2%
same,inhibition,[2],91%
same,inhibition,[3],93%
same,inhibition,[4],34%
same,inhibition,[5],0%
same,inhibition,[6],50%
same,inhibition,[7],8%
same,inhibition,[8],0%
same,inhibition,[9],4%
same,inhibition,[10],18%
same,inhibition,[11],4%
same,inhibition,[12],49%
same,inhibition,[13],64%
same,inhibition,[14],16%
same,t1/2,[15],5.68 h
same,inhibition,[16],28%
same,inhibition,[17],7%
same,inhibition,[18],85%
same,inhibition,[19],1%
same,inhibition,[20],1%
same,inhibition,[21],0%
same,inhibition,[22],0%
same,inhibition,[23],43%
same,inhibition,[24],3%
same,inhibition,[25],4%
same,inhibition,[26],91%
same,inhibition,[27],0%
same,inhibition,[28],13%
same,inhibition,[29],0%
same,inhibition,[30],12%
same,inhibition,[31],6%
same,inhibition,[32],25%
same,inhibition,[33],41%
same,inhibition,[34],30%
same,inhibition,[35],12%
same,inhibition,[36],17%
same,inhibition,[37],10%
same,inhibition,[38],0%
same,inhibition,[39],5%
same,inhibition,[40],77%
same,inhibition,[41],6%
same,inhibition,[42],41%
same,inhibition,[43],15%
same,inhibition,[44],22%
same,inhibition,[45],16%
same,inhibition,[46],47%
